Where “and” joins values, the source holds several entries; their conditions need not be identical. Equal values may be shown once. Entries after “also recorded” stand apart in the source; their conditions may differ. Marks after values point to notes of the source that are not given here. Peptide text beside a SMILES is read from it.
How the values were obtained:
[1] = test system: Nav1.6 in the presence of FGF14-ΔNT-GFP; assay: Whole-cell patch-clamp, HEK-Nav1.6 cells expressing FGF14-ΔNT-GFP; type: cell-based, human; conditions: 50 μM FLPK
Source text: Plasmids used in this study derived from the following clones: human FGF14‐1b isoform (accession number: NM_175929.2) and human Nav1.6 (accession number: NM_014191.3). The CLuc‐FGF14, CD4‐Nav1.6‐NLuc, constructs and the pcDNA3.1 vector (Invitrogen, Carlsbad, CA) were engineered and characterized as previously described (Goetz et al., 2009; Shavkunov et al., 2012,2013,2015; Ali et al., 2016, 2018; Wadsworth et al., 2019). The plasmid pGL3 expressing full length Firefly (Photinus pyralis) luciferase was a gift from Dr. P. Sarkar (Department of Neurology, UTMB). For protein purification studies, cDNAs encoding FGF14‐1b (accession number NP_787125; aa 64–252) or the C‐terminal tail of Nav1.6 (accession number #NP_001171455; aa 1756–1939) were subcloned into suitable pET bacterial expression vectors (pET28a‐FGF14; pET30a‐Nav1.6) with a 6X His‐tag at the N‐terminal site; these plasmids were a gift of Dr. Moosa Mohammadi (NYU, Langone Medical Center). The mutation coding for FGF14^V160A was generated by site‐directed mutagenesis and PCR using FGF14‐1b as a template described previously (Ali et al., 2016). For electrophysiological studies FGF14‐GFP (human) and FGF14‐ΔNT‐GFP (human) were cloned into the GFP plasmid (pQBI‐fC2; Quantum Biotechnology Inc., Montreal, Canada) as previously described.
(§1) HEK293 cells were maintained in DMEM and F‐12 (Invitrogen, Carlsbad, CA), supplemented with 0.05% glucose, 0.5 mM pyruvate, 10% fetal bovine serum, 100 units/ml penicillin, and 100 µg/ml streptomycin (Invitrogen), and incubated at 37 °C with 5% CO2. HEK293 cells stably expressing the human Nav1.6 channel (hereafter referred to as HEK‐Nav1.6 cells) were maintained similarly except for the addition of 500 μg/ml G418 (Invitrogen) to maintain stable Nav1.6 expression. Cells were transfected at 80%–90% confluence with equal amount (1 μg each) of plasmid pairs using Lipofectamine 2000 (Invitrogen) according to manufacturer's instructions. HEK‐Nav1.6 cells were washed and replated at very low density prior to electrophysiological recordings (Ali et al., 2016, 2018; Scala et al., 2018; Wadsworth et al., 2019).
(§2) HEK‐Nav1.6 cells transfected with GFP or FGF14‐GFP were plated at low density on glass cover slips for 3–4 hr and subsequently transferred to the recording chamber. Recordings were performed at room temperature (20–22°C) 24 hr posttransfection using a MultiClamp 700B amplifier (Molecular Devices, Sunnyvale, CA). The composition of recording solutions consisted of the following salts; extracellular (mM): 140 NaCl, 3 KCl, 1 MgCl2, 1 CaCl2, 10 HEPES, 10 glucose, pH 7.3; intracellular (mM): 130 CH3O3SCs, 1 EGTA, 10 NaCl, 10 HEPES, pH 7.3. Membrane capacitance and series resistance were estimated by the dial settings on the amplifier and compensated for electronically by 70%–75%. Data were acquired at 20 kHz and filtered at 5 kHz prior to digitization and storage. All experimental parameters were controlled by Clampex 9.2 software (Molecular Devices) and interfaced to the electrophysiological equipment using a Digidata 1,200 analog‐digital interface (Molecular Devices). Voltage‐dependent inward currents for HEK‐Nav1.6 cells were evoked by depolarization to test potentials between −100 mV and +60 mV from a holding potential of −70 mV followed by a voltage prestep pulse of −120 mV (Nav1.6). Steady‐state (fast) inactivation of Nav channels was measured with a paired‐pulse protocol. From the holding potential, cells were stepped to varying test potentials between −120 mV (Nav1.6) and +20 mV (prepulse) prior to a test pulse to −20 mV.
Current densities were obtained by dividing Na^+ current (INa) amplitude by membrane capacitance. Current–voltage relationships were generated by plotting current density as a function of the […]. Conductance (GNa) was calculated by the following equation: GNa=INa/Vm‐Erev where INa ^+ is the current amplitude at voltage Vm, and Erev is the Na^+ reversal potential. […]

Nav1.6 = target: T1, Nav1.6 (Homo sapiens, UniProt Q9UQD0); assay: Whole-cell patch-clamp, HEK-Nav1.6 cells expressing GFP; type: cell-based; conditions: 50 μM FLPK
T1 construct: expressed in transfected cells
T1 sequence (Q9UQD0 whole entry): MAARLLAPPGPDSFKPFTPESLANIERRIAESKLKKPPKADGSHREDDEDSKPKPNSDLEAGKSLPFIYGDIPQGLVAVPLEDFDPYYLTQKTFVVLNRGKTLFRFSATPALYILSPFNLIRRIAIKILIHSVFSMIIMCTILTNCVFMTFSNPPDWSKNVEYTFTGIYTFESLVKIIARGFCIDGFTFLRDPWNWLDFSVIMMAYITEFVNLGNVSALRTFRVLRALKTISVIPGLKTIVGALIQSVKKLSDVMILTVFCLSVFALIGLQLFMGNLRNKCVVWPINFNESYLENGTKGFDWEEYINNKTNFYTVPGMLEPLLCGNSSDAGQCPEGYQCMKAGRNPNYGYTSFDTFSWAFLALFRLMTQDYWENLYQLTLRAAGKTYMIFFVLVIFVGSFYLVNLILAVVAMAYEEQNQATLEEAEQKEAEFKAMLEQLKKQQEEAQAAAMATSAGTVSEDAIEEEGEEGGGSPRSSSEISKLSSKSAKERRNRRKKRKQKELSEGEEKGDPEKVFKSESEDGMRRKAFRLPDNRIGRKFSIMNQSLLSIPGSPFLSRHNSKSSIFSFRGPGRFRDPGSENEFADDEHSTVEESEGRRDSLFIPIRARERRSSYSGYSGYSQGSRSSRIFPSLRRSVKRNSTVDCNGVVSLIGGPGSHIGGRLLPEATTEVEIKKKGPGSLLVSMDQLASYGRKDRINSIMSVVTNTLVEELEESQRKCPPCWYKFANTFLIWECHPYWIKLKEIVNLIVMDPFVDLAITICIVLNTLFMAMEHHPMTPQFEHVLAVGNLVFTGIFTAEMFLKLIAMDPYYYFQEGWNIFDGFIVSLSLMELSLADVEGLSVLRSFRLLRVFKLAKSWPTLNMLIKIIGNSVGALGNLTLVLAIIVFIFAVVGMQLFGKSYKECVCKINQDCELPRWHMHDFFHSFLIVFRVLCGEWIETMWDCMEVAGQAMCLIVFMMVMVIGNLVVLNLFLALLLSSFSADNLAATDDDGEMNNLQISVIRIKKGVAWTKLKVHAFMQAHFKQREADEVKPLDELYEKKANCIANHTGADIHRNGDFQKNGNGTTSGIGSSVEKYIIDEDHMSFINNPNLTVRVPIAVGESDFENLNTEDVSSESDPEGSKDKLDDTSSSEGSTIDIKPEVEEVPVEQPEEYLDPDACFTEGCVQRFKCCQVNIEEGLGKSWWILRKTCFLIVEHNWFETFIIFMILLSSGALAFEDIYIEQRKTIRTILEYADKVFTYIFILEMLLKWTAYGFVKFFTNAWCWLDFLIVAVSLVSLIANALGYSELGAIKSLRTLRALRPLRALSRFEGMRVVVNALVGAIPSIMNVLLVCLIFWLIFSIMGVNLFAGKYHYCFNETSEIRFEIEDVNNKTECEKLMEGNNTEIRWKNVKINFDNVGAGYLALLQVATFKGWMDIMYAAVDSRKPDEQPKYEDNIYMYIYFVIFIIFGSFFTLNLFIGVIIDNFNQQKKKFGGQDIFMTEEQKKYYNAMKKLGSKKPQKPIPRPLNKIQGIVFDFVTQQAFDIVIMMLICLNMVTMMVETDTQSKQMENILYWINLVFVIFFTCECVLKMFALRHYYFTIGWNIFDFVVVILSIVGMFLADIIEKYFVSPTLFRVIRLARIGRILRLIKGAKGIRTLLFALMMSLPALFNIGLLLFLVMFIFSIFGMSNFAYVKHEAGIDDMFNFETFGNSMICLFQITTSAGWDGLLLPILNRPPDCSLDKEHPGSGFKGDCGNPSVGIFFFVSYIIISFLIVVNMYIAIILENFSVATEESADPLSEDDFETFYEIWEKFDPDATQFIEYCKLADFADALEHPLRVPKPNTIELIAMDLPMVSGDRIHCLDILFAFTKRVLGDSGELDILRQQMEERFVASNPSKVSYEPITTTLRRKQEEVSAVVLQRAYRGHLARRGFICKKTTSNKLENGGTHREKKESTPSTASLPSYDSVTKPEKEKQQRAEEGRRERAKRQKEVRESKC
Experimental: as §1, §2
Current densities were obtained by dividing Na^+ current (INa) amplitude by membrane capacitance. Current–voltage relationships were generated by plotting current density as a function of the […]. Conductance (GNa) was calculated by the following equation: GNa=INa/Vm‐Erev where INa ^+ is the current amplitude at voltage Vm, and Erev is the Na^+ reversal potential.
Activation curves were derived by plotting normalized GNa as a function of test potential and fitted using the Boltzmann equation: GNa/GNa,Max=1/1+eVa‐Em/k where GNa,Max is the maximum conductance, Va is the membrane potential of half‐maximal activation, Vm is the membrane voltage and k is the slope factor.
The membrane potential of half‐maximal activation, Em is the membrane voltage and k is the slope factor. For steady‐state inactivation, normalized current amplitude (INa/INa,Max) at the test potential was plotted as a function of prepulse potential (Vm) and fitted using the Boltzmann equation: INa/INa,Max=1/1+e‐Vh‐Em/k where Vh is the potential of half‐maximal inactivation, Em is the membrane voltage, and k is the slope factor.
To test whether FLKP had any modulatory effects on Nav1.6‐mediated Na^+ currents, we used whole‐cell patch‐clamp electrophysiology in HEK293 cells stably expressing Nav1.6 (HEK‐Nav1.6) that were transiently transfected with either GFP (HEK‐Nav1.6 GFP) or FGF14‐1b‐GFP (HEK‐Nav1.6 FGF14‐GFP); each group was either treated with FLPK (50 μM from a stock solution dissolved in DMSO) or 0.1% DMSO alone (vehicle) (Figure 5a‐c). […]

SMILES: CC(=O)N[C@@H](Cc1ccccc1)C(=O)N[C@@H](CC(C)C)C(=O)N1CCC[C@H]1C(=O)N[C@@H](CCCCN)C(N)=O [FLPK] (Ac-FLPK-NH2)
- effect on Nav1.6 currents in absence of FGF14 N-terminal domain ([1]; FGF14-ΔNT-GFP): insensitive to FLPK; also recorded: no effects on any other parameters associated with FGF14‐GFP regulation; also recorded: unaffected by FLPK
- Tau (τ), decay time constant of I Na ([1]; ΔNT-FGF14-GFP, at −10 mV, mean ± SEM (n = 11), DMSO 1.091 ± 0.07): 1.137 ± 0.08 (11) ms
- Kact ([1]; ΔNT-FGF14-GFP, mean ± SEM (n = 11), DMSO 4.61 ± 0.3): 1.63 ± 0.23 (11) mV
- Kinact ([1]; ΔNT-FGF14-GFP, mean ± SEM (n = 11), DMSO 6.4 ± 0.44): 6.75 ± 0.32 (11) mV
- Activation (V1/2) ([1]; ΔNT-FGF14-GFP, mean ± SEM (n = 11), DMSO –21.2 ± 0.36, p < .001): –37.43 ± 0.3 (11) ^ l , ^ o,p,q mV
- Steady-state Inactivation (V1/2) ([1]; ΔNT-FGF14-GFP, mean ± SEM (n = 11), DMSO –70.2 ± 0.53): –68.3 ± 0.34 (11) ^o,p,q mV
- effect on Nav1.6 currents without FGF14 (Nav1.6; HEK-Nav1.6 GFP vs 0.1% DMSO): not statistically different; also recorded: no measurable effects in cells expressing Nav1.6 alone
- Tau (τ), decay time constant of I Na (Nav1.6; HEK-Nav1.6 GFP, at −10 mV, mean ± SEM (n = 12), DMSO 1.0 ± 0.08, p = .0495): 0.8 ± 0.03 ms and 0.8 ± 0.03 (12)r ms
- Peak density (I Na) (Nav1.6; HEK-Nav1.6 GFP, at −10 mV, mean ± SEM (n = 14), DMSO −58.6 ± 13.9 (Table 3)): −80.8 ± 12.2 pA/pF and −80.8 ± 12.2 (14) pA/pF
- Kinact (Nav1.6; HEK-Nav1.6 GFP, mean ± SEM (n = 10), DMSO 5.8 ± 0.4): 6.1 ± 0.5 (10) mV
- Steady-state Inactivation (V1/2) (Nav1.6; HEK-Nav1.6 GFP, mean ± SEM (n = 10), DMSO −58.9 ± 0.8): −59.3 ± 1.9 (10) mV
- Kact (Nav1.6; HEK-Nav1.6 GFP, mean ± SEM (n = 12), DMSO 4.3 ± 0.2): 3.9 ± 0.3 (12) mV
- Activation (V1/2) (Nav1.6; HEK-Nav1.6 GFP, mean ± SEM (n = 12), DMSO −21.8 ± 1.3): −20.5 ± 1.2 (12) mV

Reference: article PMC7363588, “Mapping of the FGF14:Nav1.6 complex interface reveals FLPK as a functionally active peptide modulating excitability” (Physiological Reports, 2020)
